{
  "source": "patent US6869964B2",
  "about": "“Heterocyclicsulfonamide hepatitis C virus inhibitors” (Bristol-Myers Squibb Company, priority 2002, dated 2005)",
  "key": {"[1]": {"system": "HCV replicon in Huh7 cells", "assay": "HCV replicon cell-based assay (FRET)", "design": "species or system HCV strain 1B", "conditions": "Hepatitis C virus, Huh-7; replicon, activity range; read-out: EC50 a, b, c (Activity Table)", "source_text": "HCV Replicon Cell-based Assay\nAn HCV replicon whole cell system was established as described by Lohmann V, Korner F, Koch J, Herian U, Theilmann L, Bartenschlager R., Science 285(5424): 110-3 (1999). This system enabled us to evaluate the effects of our HCV Protease compounds on HICV RNA replication. Briefly, using the HCV strain 1B sequence described in the Lohmann paper (Assession number: AJ238799), an HCV cDNA was generated encoding the 5′ internal ribosome entry site (IRES), the neomycin resistance gene, the EMCV (encephalomyocarditis virus)-IRES and the HCV nonstructural proteins, NS3-NS5B, and 3′ non-translated region (NTR). In vitro transcripts of the cDNA were transfected into the human hepatoma cell line, Huh7. […] Resulting cell lines were characterized for positive and negative strand RNA production and protein production over time.\nHuh7 cells, constitutively expressing the HCV replicon, were grown in Dulbecco's Modified Eagle Media (DMEM) containing 10% Fetal calf serum (FCS) and 1 mg/ml G418 (Gibco-BRL). Cells were seeded the night before (1.5×10^4 cells/well) in 96-well tissue-culture sterile plates. Compound and no compound controls were prepared in DMEM containing 4% FCS, 1:100 Penicillin/Streptomysin, 1:100 L-glutamine and 5% DMSO in the dilution plate (0.5% DMSO final concentration in the assay). Compound/DMSO mixes were added to the cells and incubated for 4 days at 37° C. After 4 days, plates were rinsed thoroughly with Phosphate-Buffered Saline (PBS) (3 times 150 μl). The cells were lysed with 25 μl of a lysis assay reagent containing the FRET peptide (RET S1, as described for the in vitro enzyme assay). The lysis assay reagent was made from 5× cell Luciferase cell culture lysis reagent(Promega #E153A) diluted to 1× with distilled water, NaCl added to 150 mM final, the FRET peptide diluted to 10 μM final from a 2 mM stock in 100% DMSO. The plate was then placed into the Cytofluor 4000 instrument which had been set to 340 nm excitation/490 emission, automatic mode for 21 cycles and the plate read in a kinetic mode. EC50 determinations were carried out as described for the IC50 determinations."}, "[2]": {"biological_target": "T1, HCV NS3/4A protease complex (BMS strain) (Hepatitis C virus genotype 1a, UniProt P27958, C1454S)", "T1 construct": "HCV NS3/4A protease complex (amino acids 1027 to 1711); inferred from pET21b vector and Ni-NTA purification; made in house; host or cells: Escherichia coli BL21 (DE3), pET21b", "T1 sequence (P27958 1027-1657 C1454S)": "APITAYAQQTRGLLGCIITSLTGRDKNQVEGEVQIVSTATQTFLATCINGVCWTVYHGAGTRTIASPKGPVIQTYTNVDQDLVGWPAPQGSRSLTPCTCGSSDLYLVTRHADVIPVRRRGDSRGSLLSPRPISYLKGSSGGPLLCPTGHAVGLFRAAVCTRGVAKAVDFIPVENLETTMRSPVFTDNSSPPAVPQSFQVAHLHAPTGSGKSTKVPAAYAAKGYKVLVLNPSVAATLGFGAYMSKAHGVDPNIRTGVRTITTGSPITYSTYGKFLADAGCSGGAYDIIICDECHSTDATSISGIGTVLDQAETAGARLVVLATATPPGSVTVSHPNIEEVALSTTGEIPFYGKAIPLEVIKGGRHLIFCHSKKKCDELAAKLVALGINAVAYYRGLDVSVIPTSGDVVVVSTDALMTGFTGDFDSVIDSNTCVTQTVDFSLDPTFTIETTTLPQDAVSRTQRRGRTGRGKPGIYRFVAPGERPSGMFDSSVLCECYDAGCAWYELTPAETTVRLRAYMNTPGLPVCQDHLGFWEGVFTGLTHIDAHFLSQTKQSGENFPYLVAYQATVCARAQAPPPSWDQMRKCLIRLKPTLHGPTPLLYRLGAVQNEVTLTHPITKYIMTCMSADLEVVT", "T1 sequence (P27958 1658-1711 partner, looked up, stated change not applied)": "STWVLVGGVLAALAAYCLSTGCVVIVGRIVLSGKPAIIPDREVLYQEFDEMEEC", "assay": "Recombinant HCV NS3/4A protease complex FRET peptide assay, BMS strain", "format": "biochemical, HCV genotype 1a", "conditions": "NS3/4A BMS Strain, activity range; read-out: IC50 a, b, c (Activity Table)", "source_text": "Recombinant HCV NS3/4A Protease Complex FRET Peptide Assay\nThe purpose of this in vitro assay was to measure the inhibition of HCV NS3 protease complexes, derived from the BMS, H77C or J4l6S strains, as described below, by compounds of the present invention. This assay provides an indication of how effective compounds of the present invention would be in inhibiting HCV proteolytic activity.\nSerum from an HCV-infected patient was obtained from Dr. T. Wright, San Francisco Hospital. An engineered full-length cDNA template of the HCV genome (BMS strain) was constructed from DNA fragments obtained by reverse transcription-PCR (RT-PCR) of serum RNA and using primers selected on the basis of homology between other genotype la strains. From the determination of the entire genome sequence, a genotype la was assigned to the HCV isolate according to the classification of Simmonds et al. (See P Simmonds, K A Rose, S Graham, S W Chan, F McOmish, B C Dow, E A Follett, P L Yap and H Marsden, J. Clin. Microbiol., 31(6), 1493-1503 (1993)). […] The infectious clones, H77C (1a genotype) and J4 L6S (1b genotype) were obtained from R. Purcell (NIH) and the sequences are published in Genbank (AAB67036, see Yanagi, M., Purcell, R. H., Emerson, S. U. and Bukh, J. Proc. Natl. Acad. Sci. U.S.A. 94(16),8738-8743 (1997); AF054247, see Yanagi, M., St Claire, M., Shapiro, M., Emerson, S. U., Purcell, R. H. and Bukh, J, Virology 244 (1), 161-172. (1998)).\nThe BMS, H77C and J4 L6S strains were used for production of recombinant NS3/4A protease complexes. DNA encoding the recombinant HCV NS3/4A protease complex (amino acids 1027 to 1711) for these strains were manipulated as described by P. Gallinari et al. (see Gallinari P, Paolini C, Brennan D, Nardi C, Steinkuhler C, De Francesco R. Biochemistry. 38(17):5620-32, (1999)). Briefly, a three-lysine solubilizing tail was added at the 3′-end of the NS4A coding region. The cysteine in the P1 position of the NS4A-NS4B cleavage site (amino acid 1711) was changed to a glycine to avoid the proteolytic cleavage of the lysine tag. Furthermore, a cysteine to serine mutation was introduced by PCR at amino acid position 1454 to prevent the autolytic cleavage in the NS3 helicase domain. The variant DNA fragment was cloned in the pET21b bacterial expression vector (Novagen) and the NS3/4A complex was expressed in Escherichia coli strain BL21 (DE3) (Invitrogen) following the protocol described by P. Gallinari et al. (see Gallinari P, Brennan D, Nardi C, Brunetti M, Tomei L, Steinkuhler C, De Francesco R., J Virol. 72(8):6758-69 (1998)) with modifications. Briefly, NS3/4A expression was induced with 0.5 mM Isopropyl β-D-1-thiogalactopyranoside (IPTG) for 22 hr at 20° C. A typical fermentation (10 L) yielded approximately 80 g of wet cell paste. The cells were resuspended in lysis buffer (10 mL/g) consisting of 25 mM N-(2-Hydroxyethyl)Piperazine-N′-(2-Ethane Sulfonic acid) (HEPES), pH7.5, 20% glycerol, 500 mM Sodium Chloride (NaCl), 0.5% Triton-X100, 1 ug/ml lysozyme, 5 mM Magnesium Chloride (MgCl2), 1 ug/ml DnaseI, 5 mM β-Mercaptoethanol (βME), Protease inhibitor—Ethylenediamine Tetraacetic acid (EDTA) free (Roche), homogenized and incubated for 20 mins at 4° C. The homogenate was sonicated and clarified by ultra-centrifugation at 235000 g for lhr at 4° C. Imidazole was added to the supernatant to a final concentration of 15 mM and the pH adjusted to 8.0. The crude protein extract was loaded on a Nickel—Nitrilotriacetic acid (Ni—NTA) column pre-equilibrated with buffer B (25 mM HEPES, pH8.0, 20% glycerol, 500 mM NaCl, 0.5% Triton-X100, 15 mM imidazole, 5 mM βME). The sample was loaded at a flow rate of 1 mL/min. The column was washed with 15 column volumes of buffer C (same as buffer B except with 0.2% Triton-X100). The protein was eluted with 5 column volumes of buffer D (same as buffer C except with 200 mM Imidazole). […]"}},
  "data": [
    {"smiles": "C=CC1C[C@]1(NC(=O)[C@@H]1C[C@@H](Oc2cc(-c3ccccc3)nc3cc(OC)ccc23)CN1C(=O)[C@@H](NC(=O)OC(C)(C)C)C(C)(C)C)C(=O)NS(=O)(=O)C1CCS(=O)(=O)C1", "note": "(mixture of isomers) [Compound 13, {1-[2-[1-(1,1-Dioxo-tetrahydro-1H-1[…]6-thiophene-3(R/S)-sulfonylaminocarbonyl)-2-vinylcyclopropylcarbamoyl]-4-(7-methoxy-2-phenyl-quinolin-4-yloxy)pyrrolidine-1-carbonyl]-2,2-dimethylpropyl}carbamic acid tert-butyl ester]", "values": [
      {"measurement": "EC50", "setting": "[1]", "value": "100 to 1000", "unit": "nM"},
      {"measurement": "IC50", "setting": "[2]", "value": "< 100", "unit": "nM"}
    ]},
    {"smiles": "C=CC1C[C@]1(NC(=O)[C@@H]1C[C@@H](Oc2cc(-c3ccccc3)nc3cc(OC)ccc23)CN1C(=O)[C@@H](NC(=O)OC(C)(C)C)C(C)(C)C)C(=O)NS(=O)(=O)c1ccc(Cl)s1", "note": "(stereo in doubt) [Compound 2, (1-{4-(7-Methoxy-2-phenylquinolin-4-yloxy)-2-[1-(5-Chlorothiophene-2-sulfonylaminocarbonyl)-2-vinyl-cyclopropylcarbamoyl]-pyrrolidine-1-carbonyl}-2,2-dimethylpropyl)carbamic acid tert-butyl ester]", "values": [
      {"measurement": "EC50", "setting": "[1]", "value": "100 to 1000", "unit": "nM"},
      {"measurement": "IC50", "setting": "[2]", "value": "< 100", "unit": "nM"}
    ]},
    {"smiles": "C=CC1C[C@]1(NC(=O)[C@@H]1C[C@@H](Oc2cc(-c3ccccc3)nc3cc(OC)ccc23)CN1C(=O)[C@@H](NC(=O)OC(C)(C)C)C(C)(C)C)C(=O)NS(=O)(=O)c1ccc([N+](=O)[O-])s1", "note": "(stereo in doubt) [Compound 3, (1-{4-(7-Methoxy-2-phenylquinolin-4-yloxy)-2-[1-(5-Nitrothiophene-2-sulfonylaminocarbonyl)-2-vinyl-cyclopropylcarbamoyl]pyrrolidine-1-carbonyl}-2,2-dimethylpropyl)carbamic acid tert-butyl ester]", "values": [
      {"measurement": "EC50", "setting": "[1]", "value": "100 to 1000", "unit": "nM"},
      {"measurement": "IC50", "setting": "[2]", "value": "100 to 1000", "unit": "nM"}
    ]},
    {"smiles": "C=CC1C[C@]1(NC(=O)[C@@H]1C[C@@H](Oc2cc(-c3ccccc3)nc3cc(OC)ccc23)CN1C(=O)[C@@H](NC(=O)OC(C)(C)C)C(C)(C)C)C(=O)NS(=O)(=O)c1ccc(Br)s1", "note": "(stereo in doubt) [Compound 4, (1-{4-(7-Methoxy-2-phenylquinolin-4-yloxy)-2-[1-(5-Bromothiophene-2-sulfonylaminocarbonyl)-2-vinyl-cyclopropylcarbamoyl]pyrrolidine-1-carbonyl}-2,2-dimethylpropyl)carbamic acid tert-butyl ester]", "values": [
      {"measurement": "EC50", "setting": "[1]", "value": "100 to 1000", "unit": "nM"},
      {"measurement": "IC50", "setting": "[2]", "value": "< 100", "unit": "nM"}
    ]},
    {"smiles": "C=CC1C[C@]1(NC(=O)[C@@H]1C[C@@H](Oc2cc(-c3ccccc3)nc3cc(OC)ccc23)CN1C(=O)[C@@H](NC(=O)OC(C)(C)C)C(C)(C)C)C(=O)NS(=O)(=O)c1ccc(Sc2ccc(Cl)cc2)s1", "note": "(stereo in doubt) [Compound 5, {1-[2-{1-[5-(4-Chlorophenylsulfanyl)-thiophene-2-sulfonylamino-carbonyl]-2-vinyl-cyclopropylcarbamoyl}-4-(7-methoxy-2-phenyl-quinolin-4-yloxy)-pyrrolidine-1-carbonyl]-2,2-dimethylpropyl}carbamic acid tert-butyl ester]", "values": [
      {"measurement": "EC50", "setting": "[1]", "value": "1000 to 10000", "unit": "nM"},
      {"measurement": "IC50", "setting": "[2]", "value": "100 to 1000", "unit": "nM"}
    ]},
    {"smiles": "C=CC1C[C@]1(NC(=O)[C@@H]1C[C@@H](Oc2cc(-c3ccccc3)nc3cc(OC)ccc23)CN1C(=O)[C@@H](NC(=O)OC(C)(C)C)C(C)(C)C)C(=O)NS(=O)(=O)c1cc(Br)c(Cl)s1", "note": "(stereo in doubt) [Compound 7, {1-[2-{1-[4-Bromo-5-chlorothiophene-2-sulfonylamino-carbonyl]-2-vinylcyclopropylcarbamoyl}-4-(7-methoxy-2-phenyl-quinolin-4-yloxy)pyrrolidine-1-carbonyl]-2,2-dimethylpropyl}carbamic acid tert-butyl ester]", "values": [
      {"measurement": "EC50", "setting": "[1]", "value": "1000 to 10000", "unit": "nM"},
      {"measurement": "IC50", "setting": "[2]", "value": "< 100", "unit": "nM"}
    ]},
    {"smiles": "C=CC1C[C@]1(NC(=O)[C@@H]1C[C@@H](Oc2cc(-c3ccccc3)nc3cc(OC)ccc23)CN1C(=O)[C@@H](NC(=O)OC(C)(C)C)C(C)(C)C)C(=O)NS(=O)(=O)c1cc(Cl)c(Cl)s1", "note": "(stereo in doubt) [Compound 8, {1-[2-{1-[4,5-dichlorothiophene-2-sulfonylaminocarbonyl]-2-vinylcyclopropylcarbamoyl}-4-(7-methoxy-2-phenyl-quinolin-4-yloxy)pyrrolidine-1-carbonyl]-2,2-dimethylpropyl}carbamic acid tert-butyl ester]", "values": [
      {"measurement": "EC50", "setting": "[1]", "value": "100 to 1000", "unit": "nM"},
      {"measurement": "IC50", "setting": "[2]", "value": "< 100", "unit": "nM"}
    ]},
    {"smiles": "C=CC1C[C@]1(NC(=O)[C@@H]1C[C@@H](Oc2cc(-c3ccccc3)nc3cc(OC)ccc23)CN1C(=O)[C@@H](NC(=O)OC(C)(C)C)C(C)(C)C)C(=O)NS(=O)(=O)c1sc(C)nc1C", "note": "(stereo in doubt) [Compound 9, {1-[2-{1-[2,4-dimethylthiazole-5-sulfonylaminocarbonyl]-2-vinylcyclopropylcarbamoyl}-4-(7-methoxy-2-phenyl-quinolin-4-yloxy)pyrrolidine-1-carbonyl]-2,2-dimethylpropyl}carbamic acid tert-butyl ester]", "values": [
      {"measurement": "EC50", "setting": "[1]", "value": "100 to 1000", "unit": "nM"},
      {"measurement": "IC50", "setting": "[2]", "value": "< 100", "unit": "nM"}
    ]},
    {"smiles": "C=CC1C[C@]1(NC(=O)[C@@H]1C[C@@H](Oc2cc(-c3ccccc3)nc3cc(OC)ccc23)CN1C(=O)[C@@H](NC(=O)OC(C)(C)C)C(C)(C)C)C(=O)NS(=O)(=O)c1ccc(C)cn1", "note": "(stereo in doubt) [Compound 10, (1-{4-(7-Methoxy-2-phenyl-quinolin-4-yloxy)-2-[1-(5-methyl-pyridine-2-sulfonylaminocarbonyl)-2-vinylcyclopropylcarbamoyl]pyrrolidine-1-carbonyl}-2,2-dimethylpropyl)carbamic acid tert-butyl ester]", "values": [
      {"measurement": "EC50", "setting": "[1]", "value": "100 to 1000", "unit": "nM"},
      {"measurement": "IC50", "setting": "[2]", "value": "< 100", "unit": "nM"}
    ]}
  ]
}
